This assay deals with P388 leukemia ip, CD2F1 mice, survival T/C. The experiment in a line: NCI In Vivo Anticancer Drug Screen. Data for tumor model P388 Leukemia (intraperitoneal) in CD2F1 (CDF1) mice. The following applies: endpoint: median survival time, higher = longer survival. In short, it runs like this: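 Mice carrying the transplanted tumor received test compound or vehicle. Survival was recorded in each group, and the value is the treated-group measurement divided by that of the vehicle-treated control group.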

Where [1] appears, read: dose: 60.0 mg/kg/injection, schedule: Q01DX005 (ip), vehicle: Klucel (hydroxypropylcellulose) (HPC).
The mark [2] stands for this setting: dose: 120.0 mg/kg/injection, schedule: Q01DX005 (ip), vehicle: Klucel (hydroxypropylcellulose) (HPC).
Where [3] appears, read: dose: 60.0 mg/kg/injection, schedule: Q01DX005 (ip), vehicle: saline with Tween-80.
The mark [4] stands for this setting: dose: 120.0 mg/kg/injection, schedule: Q01DX005 (ip), vehicle: saline with Tween-80.
Where [5] appears, read: dose: 240.0 mg/kg/injection, schedule: Q01DX005 (ip), vehicle: saline with Tween-80.
The mark [6] stands for this setting: dose: 50.0 mg/kg/injection, schedule: Q01DX005 (ip), vehicle: saline with Tween-80.
Setting [7] is: dose: 100.0 mg/kg/injection, schedule: Q01DX005 (ip), vehicle: saline with Tween-80.
[8] abbreviates: dose: 50.0 mg/kg/injection, schedule: Q01DX009 (ip), vehicle: water.
Setting [9] is: dose: 100.0 mg/kg/injection, schedule: Q01DX009 (ip), vehicle: water.
Setting [10] is: dose: 50.0 mg/kg/injection, schedule: Q01DX005 (ip), vehicle: Klucel (hydroxypropylcellulose) (HPC).
Where [11] appears, read: dose: 100.0 mg/kg/injection, schedule: Q01DX005 (ip), vehicle: Klucel (hydroxypropylcellulose) (HPC).
[12] abbreviates: dose: 200.0 mg/kg/injection, schedule: Q01DX005 (ip), vehicle: Klucel (hydroxypropylcellulose) (HPC).
[13] abbreviates: dose: 50.0 mg/kg/injection, schedule: Q01DX009 (ip), vehicle: saline.
Setting [14] is: dose: 100.0 mg/kg/injection, schedule: Q01DX009 (ip), vehicle: saline.

Several values for one entry are separate records, joined by “and”; a condition that tells them apart may be missing. Equal values may be shown once. Inconclusive results and toxic doses are left out.

Take `Cc1cc(O)c(C(=O)/C=C/c2ccnc3ccccc23)c(=O)o1`: the T/C under setting [1] was 104 % of control and the T/C under setting [2] was 108 % of control.
For the compound `CC(=O)OCC1OC(Nc2[nH]c(=O)n(C)c(=O)c2C=O)C(OC(C)=O)C(OC(C)=O)C1OC(C)=O` (centres undefined), the T/C by setting is: under setting [3], 105 % of control; under setting [4], 109 % of control; under setting [5], 103 % of control.
For `c1ccc2c(c1)nc1cc(NC3CCCCC3)c(=NC3CCCCC3)cc-1n2C1CCCCC1` the same measures were 87 % of control, 91 % of control and 89 % of control.
As to `ClCCN1c2ccc3ccccc3c2Sc2ccc3ccccc3c21`, the T/C under setting [6] was 95 % of control and the T/C under setting [7] is 89 % of control.
As to `Oc1ccc(O)cc1`, the T/C is 106 % of control (dose: 12.5 mg/kg/injection, schedule: Q01DX009 (ip), vehicle: saline with Tween-80); 113 % of control (dose: 25.0 mg/kg/injection, schedule: Q01DX009 (ip), vehicle: saline with Tween-80); 122 % of control (dose: 50.0 mg/kg/injection, schedule: Q01DX009 (ip), vehicle: saline with Tween-80); 150 % of control (dose: 100.0 mg/kg/injection, schedule: Q01DX009 (ip), vehicle: saline with Tween-80).
Consider `COc1ccc(C(CC(=O)O)c2cc3c(cc2OC)OCO3)cc1` (centres undefined), for which the T/C is 94 % of control (dose: 50.0 mg/kg/injection, schedule: Q01DX005 (ip), vehicle: distilled water + Tween-80); 96 % of control (dose: 100.0 mg/kg/injection, schedule: Q01DX005 (ip), vehicle: distilled water + Tween-80); 90 % of control (dose: 200.0 mg/kg/injection, schedule: Q01DX005 (ip), vehicle: distilled water + Tween-80).
As to `CCOc1cc2c(cc1C(C)c1ccccc1)OCO2` (centres undefined), the T/C reads like this: under setting [6], 108 % of control; under setting [7], 101 % of control; (dose: 200.0 mg/kg/injection, schedule: Q01DX005 (ip), vehicle: saline with Tween-80) 101 % of control.
For the compound `CC(=O)NCCc1nc(-c2nc(C(=O)NCCCN)cs2)cs1`, the T/C by setting is: (dose: 12.5 mg/kg/injection, schedule: Q01DX009 (ip), vehicle: water) 93 % of control; (dose: 25.0 mg/kg/injection, schedule: Q01DX009 (ip), vehicle: water) 98 % of control; under setting [8], 108 % of control; under setting [9], 99 % of control; (dose: 200.0 mg/kg/injection, schedule: Q01DX009 (ip), vehicle: water) 98 % of control.
For the compound `OCc1c(-c2ccc(Cl)cc2)c(-c2ccccc2)c2n1CCC2`, the T/C reads like this: under setting [10], 94 % of control; under setting [11], 91 % of control; under setting [12], 92 % of control.
`Cc1cc(N)c(C)c2ccncc12`: the T/C is, setting by setting: (dose: 0.63 mg/kg/injection, schedule: Q01DX009 (ip), vehicle: saline with Tween-80) 100 % of control; (dose: 1.25 mg/kg/injection, schedule: Q01DX009 (ip), vehicle: saline with Tween-80) 90 % of control; (dose: 2.5 mg/kg/injection, schedule: Q04DX003 (ip), vehicle: saline with Tween-80) 104 % of control.
In the case of `CCC1=C[C@H]2CN(CCc3c([nH]c4ccccc34)[C@@](C(=O)OC)(c3cc4c(cc3OC)N(C)[C@H]3C(C(=O)NC)=C[C@]5(CC)C=CCN6CC[C@]43[C@@H]65)C2)C1`, the T/C was 101 % of control (dose: 1.0 mg/kg/injection, schedule: Q01DX001 (ip), vehicle: other); 101 % of control (dose: 2.0 mg/kg/injection, schedule: Q01DX001 (ip), vehicle: other); 107 % of control (dose: 4.0 mg/kg/injection, schedule: Q01DX001 (ip), vehicle: other); 108 % of control (dose: 8.0 mg/kg/injection, schedule: Q01DX001 (ip), vehicle: other); 114 % of control (dose: 16.0 mg/kg/injection, schedule: Q01DX001 (ip), vehicle: other); 112 % of control and 123 % of control (dose: 32.0 mg/kg/injection, schedule: Q01DX001 (ip), vehicle: other). For the same compound, the T/C (dose: 64.0 mg/kg/injection, schedule: Q01DX001 (ip), vehicle: other) was 119 % of control.
Consider `CCOc1cccc(/C=C2/C(=O)N(Cc3ccco3)SC2=S)c1O`, for which the T/C is, setting by setting: (dose: 3.12 mg/kg/injection, schedule: Q01DX009 (ip), vehicle: Klucel (hydroxypropylcellulose) (HPC)) 93 % of control; (dose: 6.25 mg/kg/injection, schedule: Q01DX009 (ip), vehicle: Klucel (hydroxypropylcellulose) (HPC)) 93 % of control; (dose: 12.5 mg/kg/injection, schedule: Q01DX009 (ip), vehicle: Klucel (hydroxypropylcellulose) (HPC)) 93 % of control and 94 % of control; (dose: 25.0 mg/kg/injection, schedule: Q01DX009 (ip), vehicle: Klucel (hydroxypropylcellulose) (HPC)) 98 % of control.
Turning to `CCCC#CC#N`, under “dose: 50.0 mg/kg/injection, schedule: Q01DX009 (ip), vehicle: olive oil, sesame oil, peanut oil”, the T/C was 116 % of control.
On to `CC(=O)Oc1cc2c(cc1Cc1ccc3c(c1)OCO3)OCO2`, for which the T/C under setting [10] was 101 % of control, the T/C under setting [11] is 95 % of control and the T/C under setting [12] was 100 % of control.
As to `O=C1C2CC(Cl)C(SSC3CC4C(=O)N(SC(Cl)(Cl)C(Cl)Cl)C(=O)C4CC3Cl)CC2C(=O)N1SC(Cl)(Cl)C(Cl)Cl` (centres undefined), the T/C by setting is: (dose: 6.25 mg/kg/injection, schedule: Q01DX005 (ip), vehicle: saline with Tween-80) 108 % of control and 110 % of control; (dose: 12.5 mg/kg/injection, schedule: Q01DX005 (ip), vehicle: saline with Tween-80) 101 % of control and 107 % of control; under setting [6], 115 % of control.
Regarding `CC(=O)C1=C(O)/C(=C\C=C\c2ccccc2)OC1=O`, the T/C is, setting by setting: (dose: 50.0 mg/kg/injection, schedule: Q01DX009 (ip), vehicle: Klucel (hydroxypropylcellulose) (HPC)) 111 % of control; (dose: 100.0 mg/kg/injection, schedule: Q01DX009 (ip), vehicle: Klucel (hydroxypropylcellulose) (HPC)) 104 % of control; (dose: 200.0 mg/kg/injection, schedule: Q01DX009 (ip), vehicle: Klucel (hydroxypropylcellulose) (HPC)) 118 % of control.
For `CNCCCCc1cc(-c2ccc([N+](=O)[O-])cc2)n[nH]1`, the T/C (dose: 100.0 mg/kg/injection, schedule: Q04DX003 (ip), vehicle: Klucel (hydroxypropylcellulose) (HPC)) was 105 % of control.
As to `CNC(=O)OCc1c(COC(=O)NC)c(-c2ccccc2)n(C)c1C`, the T/C (dose: 50.0 mg/kg/injection, schedule: Q01DX009 (ip), vehicle: distilled water + Tween-80) is 90 % of control.
Take `Clc1ncnc2c1ncn2C1CCCO1` (centres undefined): the T/C reads like this: under setting [13], 110 % of control; under setting [14], 115 % of control.
As to `CC(C)c1cccc(C(C)C)c1NC(=O)N1CCCCC1`, the T/C under setting [3] was 99 % of control, the T/C under setting [4] is 93 % of control and the T/C under setting [5] was 100 % of control.
In the case of `O=C1C2=C(Nc3cc([N+](=O)[O-])ccc3N2)OC1c1ccccn1` (centres undefined), the T/C (dose: 30.0 mg/kg/injection, schedule: Q01DX005 (ip), vehicle: Klucel (hydroxypropylcellulose) (HPC)) was 119 % of control; the T/C under setting [1] is 122 % of control; the T/C under setting [2] was 121 % of control.
Take `Nc1nc2c(ncn2C2OC(CO)C(O)C2O)c(=O)[nH]1.Nc1nc2c(ncn2C2OC(CO)C(O)C2O)c(=O)[nH]1.[NH2-].[NH2-].[Pt+2]` (centres undefined): the T/C (dose: 6.25 mg/kg/injection, schedule: Q01DX009 (ip), vehicle: saline) was 101 % of control; the T/C (dose: 12.5 mg/kg/injection, schedule: Q01DX009 (ip), vehicle: saline) was 100 % of control and 108 % of control; the T/C (dose: 25.0 mg/kg/injection, schedule: Q01DX009 (ip), vehicle: saline) was 100 % of control and 107 % of control; the T/C under setting [13] is 100 % of control and 113 % of control and 107 % of control; the T/C under setting [8] is 175 % of control; the T/C (dose: 50.0 mg/kg/injection, schedule: Q04DX003 (ip), vehicle: saline) is 100 % of control. Further, the T/C by setting is: under setting [14], 112 % of control and 121 % of control and 116 % of control; under setting [9], 174 % of control; (dose: 100.0 mg/kg/injection, schedule: Q04DX003 (ip), vehicle: saline) 120 % of control; (dose: 200.0 mg/kg/injection, schedule: Q01DX009 (ip), vehicle: saline) 163 % of control and 177 % of control; (dose: 200.0 mg/kg/injection, schedule: Q04DX003 (ip), vehicle: saline) 110 % of control; (dose: 400.0 mg/kg/injection, schedule: Q01DX009 (ip), vehicle: saline) 224 % of control and 227 % of control.

The values are drawn from PubChem BioAssay AID330 (DTP/NCI, 2004).
